Data set [1] is described as follows: Determination of kinetic solubility. Format: physicochemical. To be noted: aqueous buffer, kinetic from dmso stock, 50 mM phosphate buffer pH 7.4, 24 hours, room temperature, 200 μM maximum. The protocol: The test compounds were dissolved in DMSO to prepare 10 mmol/L stock solutions. The stock solutions were diluted with 50% ACN/50 mM phosphate buffer (pH 7.4) to prepare standard solutions (1 μM, 20 μM, […]).
490 μL of dissolution medium (50 mM phosphate buffer solution, pH 7.4) was pipetted into a 96-well plate with a single-well volume of 2 mL using a pipette (Eppendorf Research Inc.). 10 μL of the stock solution of each test compounds and QC sample (10 mmol/L DMSO stock solution) were added to the dissolution medium, respectively, and the sample plate was sealed with a sealing film. The final concentration of the test compounds and DMSO in the sample solution were 200 μM and 2%, respectively. The mixture was shaken at 600 rpm for 24 hours at room temperature. 200 μL of the sample solution was transferred into a 96-well filter plate using a pipette and filtered with suction. The filtrate and the standard solution were detected by high performance liquid chromatography (HPLC-DAD). The concentration of the test compounds in the filtrate was calculated by an external standard method, which was the kinetic solubility of the compounds.

Data set [2] deals with T1, Human adenosine A2A receptor (Homo sapiens, UniProt P29274).
T1 construct: host or cells: CHO
T1 sequence (P29274 whole entry): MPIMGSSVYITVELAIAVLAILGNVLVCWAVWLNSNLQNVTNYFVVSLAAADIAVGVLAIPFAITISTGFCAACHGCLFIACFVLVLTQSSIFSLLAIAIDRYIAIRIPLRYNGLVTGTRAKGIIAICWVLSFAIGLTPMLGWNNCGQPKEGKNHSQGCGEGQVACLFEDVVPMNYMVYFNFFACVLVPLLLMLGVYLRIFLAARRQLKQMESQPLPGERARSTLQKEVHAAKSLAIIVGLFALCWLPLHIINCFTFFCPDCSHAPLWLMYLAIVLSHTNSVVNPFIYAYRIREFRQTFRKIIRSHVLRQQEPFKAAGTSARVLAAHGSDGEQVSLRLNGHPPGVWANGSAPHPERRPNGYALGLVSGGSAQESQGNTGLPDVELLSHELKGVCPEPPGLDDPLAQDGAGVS
As to the kind of experiment: Human adenosine A2A receptor calcium flux assay. To be noted: A2A stable CHO cell strain, antagonist mode against agonist NECA at EC80, FLIPR Fluo-4. Format: cell-based. The procedure:
Human adenosine A2A receptor calcium flux assay
A2A stable cell strain was constructed by Shanghai WuXi PharmaTech, and the host cell was CHO.
Fluo-4 Direct Kit (Invitrogen, Cat. No. F10471). After the fluorescent detection reagent (specifically binding to calcium ions and causing an increase in fluorescence signal) in the kit was incubated with the cells for a suitable period of time, the compound was added to stimulate the cells to cause changes in intracellular calcium flux, thereby causing changes in the fluorescent signal, which can reflect the strength of the agonistic or inhibitory activity of the compound.
F12+10% fetal bovine serum+geneticin 300 ug/ml+blasticidin 2 ug/ml Compound dilution buffer:
Hanks Balanced Salt Buffer (Invitrogen)+20 mM HEPES, configured before each use
The test compounds were dissolved in DMSO to prepare 10 mM stock solutions. The test compounds were diluted to 0.2 mM with DMSO, and the reference compound CGS-15943 was diluted to 0.015 mM with DMSO. Next, 10 points of three-fold serial dilutions were made with ECHO. 900 nl was transferred to the compound plate (Greiner-781280), and 30 ul of compound dilution buffer was added. The final starting concentration of the test compounds was 1 uM and CGS-15943 was 0.075 uM.
Cryopreserved A2A cells were resuscitated, and then resuspended in culture medium to 1×10^6 cells/ml. The suspension was seeded into 384-well polylysine-coated cell plates (Greiner-781946) at 20 μl/well and incubated overnight in a 5% CO2 incubator at 37° C.
The cell plate prepared the day before was taken out from the incubator, and 20 ul of 2× Fluo-4 Direct™ buffer was added to each well. The plate was incubated for 50 minutes in a 5% CO2 incubator at 37° C. and allowed to stand at room temperature for 10 minutes.
Dilution of agonist NECA: 10 points of three-fold serial dilutions were made with Echo for NECA from a starting concentration of 0.15 mM. 900 nL was then transferred to the corresponding compound plate; and then 30 μl of compound dilution buffer was added to the corresponding compound plate. The final starting concentration was 750 nM.
FLIPR instrument software was run. According to the programmed procedure, 10 ul of compound dilution buffer was added to the cell plate and the fluorescence signal was read. 10 ul of the agonist reference compound at the indicated concentration was then added to the cell plate and the fluorescent signal was read. After reading, the data was exported by the “Max-Min”, “Read 90 to Maximum allowed” method in the software, and the EC80 of the A2A cell line was calculated. The agonist was prepared at a concentration of 6× EC80. A 6× EC80 concentration of a reference compound agonist of the corresponding cells was prepared with a buffer solution, and added at 30 ul/well to the corresponding compound plate for use.
FLIPR instrument software was run. According to the programmed procedure, 10 μl of the test compounds and reference compound at an indicated concentration was added to the cell plate and the fluorescence signal was read. 10 ul of the reference compound agonist at a concentration of 6× EC80 was then added to the cell plate and the fluorescent signal was read. For the agonist detection of the compounds, the data was exported by the “Max-Min”, “Read 1 to 90” method in the software. For the antagonist detection of the compound, the data was exported by the “Max-Min”, “Read 90 to Maximum allowed” method in the software. Data were analyzed by GraphPad Prism 5.0 and the IC50 values of the test compounds were calculated.

Data set [3] is described as follows: Pharmacokinetics in female Balb/c mice. It counts as in vivo. To be noted: mouse, plasma, single intravenous injection / single oral administration; for bioavailability: read-out: Bioavailability F; for AUC: read-out: Concentration integral AUC; for half-life: read-out: Half-life T1/2 (converted). The protocol: Objective: To test the pharmacokinetics of compounds in female Balb/c mice in vivo
Balb/c mice (female, 15-30 g, 7-9 weeks old, Shanghai Lingchang)
The pharmacokinetics profile of the compounds in rodent after intravenous injection and oral administrations was tested using a standard protocol. In the assay, the candidate compound was formulated into a clear solution and administrated to the mice through a single intravenous injection, and formulated into a uniform suspension and administrated to the mice through a single oral administration. […] The whole blood samples were collected within 24 hours, centrifuged at 3000 g at 4° C. for 15 minutes, and plasma samples were obtained by separating the supernatant. 20 times volume of acetonitrile solution containing an internal standard was added to precipitate proteins. After centrifugation, the supernatant was collected, to which an equal volume of water was added, and further centrifuged to collect the supernatant. The LC-MS/MS method was used to quantitatively analyze the plasma concentration, and the pharmacokinetics parameters, such as peak concentration, peak time, clearance rate, half-life, area under the curve, and bioavailability were calculated.

pIC50: −log10 of the molar value. Values after ≈ are worked out from the molar mass of the structure shown.

In data set [1], `Cc1cc(-c2c(-c3ccc(F)cc3)nc(N)n3nc(C)nc23)cc(C(F)(F)F)n1` [Example C-46] had a solubility at 24 h of 172 µM (≈ 69.2 µg/mL). For the same compound, the negative-log IC50 (pIC50) in data set [2] is 8.51. Also, in data set [3], the clearance was found to be 0.54 mL/min/kg, the bioavailability came to 44%, the AUC was 20.1 µM·h and the half-life was 1.92 h.
Take `Cc1cc(-c2c(-c3ccc(F)cc3)nc(N)n3nc(C(F)(F)F)nc23)cc(Cl)n1` [Example C-41]: in data set [2], the negative-log IC50 (pIC50) was 8.30. In addition, in data set [3], the clearance came out at 5.53 mL/min/kg, the bioavailability was found to be 41.2%, the AUC worked out at 25.1 µM·h and the half-life is 8.04 h.
For `Cc1cc(-c2c(-c3ccccc3)nc(N)n3ncnc23)cc(C)n1` [Example B-5], in data set [1], the solubility at 24 h is 197 µM (≈ 62.3 µg/mL). Also, in data set [2], the pIC50 is 9.55. Further, in data set [3], the clearance amounted to 24 mL/min/kg, the bioavailability was 91%, the AUC stood at 19.6 µM·h and the half-life is 0.33 h.
For the compound `Cc1cc(-c2c(-c3ccccc3)nc(N)n3ncnc23)cc(C(F)(F)F)n1` [Example A-1], the solubility at 24 h in data set [1] turned out to be 185 µM (≈ 68.5 µg/mL). Besides, in data set [2], the pIC50 is 9.64. Besides, in data set [3], the clearance stood at 51.2 mL/min/kg, the bioavailability stood at 41.1%, the AUC was determined as 3.33 µM·h and the half-life was 0.47 h.
With `Cc1cc(-c2c(-c3ccccc3)nc(N)n3ncnc23)cc(Cl)n1` [Example B-31], the solubility at 24 h in data set [1] worked out at 56 µM (≈ 18.9 µg/mL). For the same compound, the pIC50 in data set [2] was 9.55. Moreover, in data set [3], the clearance was 44.3 mL/min/kg, the bioavailability was determined as 17.4%, the AUC was determined as 1.73 µM·h and the half-life is 0.25 h.
The compound `COc1ccccc1-c1nc(N)n2ncnc2c1-c1cc(C)nc(C(F)(F)F)c1` [Example A-4] gave a solubility at 24 h in data set [1] of 160 µM (≈ 64.1 µg/mL). For the same compound, in data set [2], the negative-log IC50 (pIC50) is 8.97.
For `Nc1nc(-c2ccccc2)c(-c2cc(Cl)nc(C(F)(F)F)c2)c2ncnn12` [Example B-28], in that order: 54.5 µM (≈ 21.3 µg/mL) and 8.81.
On to `Cc1cc(-c2c(-c3ccc(F)cc3)nc(N)n3nc(CO)nc23)cc(C(F)(F)F)n1` [Example C-43], for which the solubility at 24 h in data set [1] was 168 µM (≈ 70.3 µg/mL). For the same compound, the pIC50 in data set [2] is 8.87. Also, in data set [3], the clearance amounted to 7.51 mL/min/kg, the bioavailability is 82.9%, the AUC was 43.9 µM·h and the half-life is 1.99 h.
Regarding `Cc1cc(-c2nnc(N)nc2-c2ccccc2)cc(C(F)(F)F)n1` [Compound A, reference compound], in data set [1], the solubility at 24 h stood at 29.2 µM (≈ 9.67 µg/mL). Besides, in data set [3], the clearance was 208 mL/min/kg, the bioavailability is 21.6%, the AUC amounted to 0.501 µM·h and the half-life is 0.28 h.
Turning to `Cc1cc(-c2c(-c3cccc(F)c3)nc(N)n3ncnc23)cc(C(F)(F)F)n1` [Example A-2], in data set [2], the pIC50 is 9.42. Moreover, in data set [3], the clearance was 44.9 mL/min/kg, the bioavailability worked out at 62.1%, the AUC was 5.93 µM·h and the half-life is 0.8 h.
In turn, `Cc1cc(-c2c(-c3cccc(F)c3F)nc(N)n3ncnc23)cc(C(F)(F)F)n1` [Example A-3] showed a solubility at 24 h in data set [1] of 92.5 µM (≈ 37.6 µg/mL). Further, the pIC50 in data set [2] was 9.49.
In data set [1], `Nc1nc(-c2ccc(F)cc2)c(-c2cc(Cl)nc(C(F)(F)F)c2)c2nc(CO)nn12` [Example C-58] showed a solubility at 24 h of 78.9 µM (≈ 34.6 µg/mL). Also, in data set [2], the pIC50 was 8.76. For the same compound, in data set [3], the clearance is 2.5 mL/min/kg, the bioavailability was found to be 123%, the AUC amounted to 157 µM·h and the half-life was 7.26 h.
Consider `Cc1cc(-c2c(-c3ccccc3)nc(N)n3nc(C(F)(F)F)nc23)cc(C)n1` [Example C-2], for which, in data set [2], the pIC50 is 8.53. In addition, in data set [3], the clearance came out at 8.76 mL/min/kg, the bioavailability was determined as 50.4%, the AUC was 24.9 µM·h and the half-life was 2 h.
In data set [1], `Cc1cc(-c2c(-c3ccccc3)nc(N)n3nc(CO)nc23)cc(C)n1` [Example C-19] gave a solubility at 24 h of 194 µM (≈ 67.2 µg/mL). For the same compound, the pIC50 in data set [2] is 9.40. In data set [3], the clearance stood at 38.7 mL/min/kg, the bioavailability worked out at 70.7%, the AUC amounted to 8.79 µM·h and the half-life was 0.92 h.
For the compound `Cc1cc(-c2c(-c3ccccc3)nc(N)n3nc(CO)nc23)cc(C(F)(F)F)n1` [Example C-33], the solubility at 24 h in data set [1] is greater than 200 µM. Moreover, the negative logarithm of the IC50 (pIC50) in data set [2] was 9.19. In addition, in data set [3], the clearance was determined as 18 mL/min/kg, the bioavailability worked out at 95.2%, the AUC is 22 µM·h and the half-life is 1.2 h.
Consider `Cc1cc(-c2c(-c3ccc(F)cc3)nc(N)n3nc(C(F)(F)F)nc23)cc(C)n1` [Example C-57], for which the pIC50 in data set [2] was 8.35. In addition, in data set [3], the clearance worked out at 3.94 mL/min/kg, the bioavailability came to 69.3%, the AUC stood at 71.7 µM·h and the half-life is 3.2 h.
For `Cc1cc(-c2c(-c3ccccc3)nc(N)n3nc(C(F)(F)F)nc23)cc(C(F)(F)F)n1` [Example C-1] the same measures were 8.78, 11.7 mL/min/kg, 40.5%, 13.2 µM·h and 3.95 h.

By solubility is commonly meant the concentration that dissolves in the medium under given conditions. As a reminder, the pIC50 is the IC50 on a negative log10 scale, so that one unit is a factor of ten.
